Source: patent US11185100B2 (priority 2014, dated 2021)
Read-outs that look alike come from different tables or passages of the source.

Assays:
T1R1/T1R3 receptor [1] = biological target: T1, T1R1/T1R3 receptor (Felis catus, UniProt E3UMS2); assay: Activation of T1R1/T1R3 receptor by transmembrane compounds and nucleotide derivatives, conducted as in Examples 1, 2 and 5 (Example 7); format: cell-based, cat; details: for Max resp % of IMP +Alanine (20 mM): hek293 cells; for Activity: modulation of T1R1/T1R3
From the text: (§1) Methods: HEK293 cells that stably express T1R3 and inducibly express T1R1 were exposed to nucleotide derivatives alone to activate the umami receptor. Activation of the T1R1/T1R3 receptor was detected by a change in intracellular calcium levels using a calcium sensitive fluorescent dye. Cells that express T1R3 but not T1R1 were used as a control. A FLIPR® Tetra or a FlexStation® 3 was used for data capture.
as §1, with “alone or in combination with one or more amino acids and/or one or more nucleotides” for “alone”, “dye and/or a luminescent reporter system.” for “dye.”
as §1, with “transmembrane compounds” for “nucleotide derivatives”, “alone or in combination with one or more amino acids and/or one or more nucleotides” for “alone”
(§2) In each experiment, serial dilutions of up to 10 mM of the transmembrane compound were added to the T1R1/T1R3-expressing cells.

T1R1/T1R3 receptor [2] = biological target: T1, T1R1/T1R3 receptor; assay: Activation of T1R1/T1R3 receptor by transmembrane compounds alone or with alanine, IMP, GMP, phenylalanine; HEK293 cells, calcium fluorescence (Example 5); format: cell-based, cat; details: for Max resp % of IMP +Alanine (20 mM): relative to IMP; for Thres +Alanine (20 mM) / Thres +IMP (0.2 mM): threshold concentration; for Max resp % of Ala +IMP (0.2 mM): relative to Ala; for Activity: Table 18, all transmembrane compounds tested, active / N/A (not active)
From the text: as §1, with “transmembrane compounds” for “nucleotide derivatives”, “alone or in combination with one or more amino acids and/or one or more nucleotides” for “alone”
as §2

[3] = read-out: EC50 +Alanine (20 mM)

Row | Compound | Max resp ΔF/F +Alanine (20 mM) (T1R1/T1R3 receptor [1]) | Thres +Alanine (20 mM) (T1R1/T1R3 receptor [1]) [mM] | Max resp % of Ala +IMP (0.2 mM) (T1R1/T1R3 receptor [1]; +IMP (0.2 mM)) | Max resp ΔF/F +IMP (0.2 mM) (T1R1/T1R3 receptor [1]; +IMP (0.2 mM)) | Thres +IMP (0.2 mM) (T1R1/T1R3 receptor [1]; +IMP (0.2 mM)) [mM] | Max resp % of IMP +Alanine (20 mM) (T1R1/T1R3 receptor [1]) | Activity (T1R1/T1R3 receptor [1]) | further results
1 | CCCCc1nn(CC(=O)N2CCCC2)c(=O)n1Cc1ccccc1 [4-benzyl-3-butyl-1-(2-oxo-2-(pyrrolidin-1-yl)ethyl)-1H-1,2,4-triazol-5(4H)-one] | 0.8900 ΔF/F | 0.3 | 193.2 % of Ala | 1.5025 ΔF/F | 0.1 | 129.9 % of IMP | active | EC50 (T1R1/T1R3 receptor [1]; compound alone in buffer, read-out: EC50 +buffer (alone)): > 600 µM; EC50 (T1R1/T1R3 receptor [1]; [3]): > 600 µM; EC50 (T1R1/T1R3 receptor [1]; read-out: EC50 +Alanine (20 mM) + IMP (0.2 mM)): > 600 µM; EC50 (T1R1/T1R3 receptor [1]; read-out: EC50 +IMP (0.2 mM), +IMP (0.2 mM)): > 600 µM
2 | N[C@@H](Cc1c[nH]c2ccccc12)C(=O)O [L-Tryptophan, reference compound] | – | – | 86.8 % of Ala | 0.6750 ΔF/F | 0.1 | – | – | –
3 | Nc1ccccc1C(=O)NCCc1ccccc1 [2-amino-N-phenethylbenzamide] | 0.6400 ΔF/F | 0.3 | 194.5 % of Ala | 1.5125 ΔF/F | 0.01 | 93.4 % of IMP | active | –
4 | O=C(O)C1CCCCC1C(=O)Nc1cc(Cl)cc(Cl)c1 (stereo not drawn) [2-((3,5-dichlorophenyl)carbamoyl)cyclohexanecarboxylic acid] | 1.1200 ΔF/F | 0.1 | 157.9 % of Ala | 1.2275 ΔF/F | 0.03 | 163.5 % of IMP | active | –
5 | N[C@@H](Cc1ccc(O)cc1)C(=O)O [L-Tyrosine, reference compound] | – | – | 38.0 % of Ala | – | 3.0 | – | – | Max resp ΔF/F +IMP (0.2 mM) (T1R1/T1R3 receptor [1]): 0.2958 ΔF/F
6 | CCC(CC)NC(=O)c1ccc2c(c1)OCCO2 [N-(pentan-3-yl)-2,3-dihydrobenzo[b][1,4]dioxine-6-carboxamide] | – | – | – | – | – | – | – | +Alanine (20 mM) Max resp % of IMP (T1R1/T1R3 receptor [2]; +Alanine (20 mM)): 25.2 % of IMP; +Alanine (20 mM) Max resp ΔF/F (T1R1/T1R3 receptor [2]; +Alanine (20 mM)): 0.3125 ΔF/F; +Alanine (20 mM) Thres (T1R1/T1R3 receptor [2]; +Alanine (20 mM)): 0.3 mM; Max resp % of IMP +Alanine (20 mM) (T1R1/T1R3 receptor [2]; +Alanine (20 mM)): 25.2%; Thres +Alanine (20 mM) (T1R1/T1R3 receptor [2]; +Alanine (20 mM)): 0.3 mM; +IMP (0.2 mM) Max resp % of Ala (T1R1/T1R3 receptor [2]; +IMP (0.2 mM)): 70.9 % of Ala; Max resp ΔF/F +IMP (0.2 mM) (T1R1/T1R3 receptor [2]; +IMP (0.2 mM)): 0.8725 ΔF/F; Max resp % of Ala +IMP (0.2 mM) (T1R1/T1R3 receptor [2]; +IMP (0.2 mM)): 70.9%; Thres +IMP (0.2 mM) (T1R1/T1R3 receptor [2]; +IMP (0.2 mM)): 0.075 mM; Activity (T1R1/T1R3 receptor [2]): active
7 | N[C@@H](CS)C(=O)O [L-Cysteine, reference compound] | – | – | 74.6 % of Ala | 0.5800 ΔF/F | 10.0 | – | – | –
8 | O=C(NCCc1c[nH]c2ccccc12)c1cccnc1 [N-(2-(1H-indol-3-yl)ethyl)nicotinamide, N-(2-(1H-Indol-3-yl)ethyl)nicotinamide] | 1.1400 ΔF/F | 0.03 | 170.1 % of Ala | 1.3225 ΔF/F | 0.003 | 166.4 % of IMP | active | EC50 (T1R1/T1R3 receptor [1]; [3]): > 100 µM
9 | O=C(NCCc1ccccc1)c1cccnc1 [N-phenethylnicotinamide] | 0.5725 ΔF/F | 0.1 | 149.5 % of Ala | 1.1625 ΔF/F | 0.03 | 83.6 % of IMP | active | EC50 (T1R1/T1R3 receptor [1]; read-out: T1R1/T1R3 EC50): > 300 µM
10 | CCC(CC)NC(=O)c1ccc(C)c(C)c1 [3,4-dimethyl-N-(pentan-3-yl)benzamide] | – | – | – | – | – | – | – | Max resp % of IMP +Alanine (20 mM) (T1R1/T1R3 receptor [2]; +Alanine (20 mM)): 97.8%; Thres +Alanine (20 mM) (T1R1/T1R3 receptor [2]; +Alanine (20 mM)): 3 mM; Max resp ΔF/F +IMP (0.2 mM) (T1R1/T1R3 receptor [2]; +IMP (0.2 mM)): 1.5475 ΔF/F; Max resp % of Ala +IMP (0.2 mM) (T1R1/T1R3 receptor [2]; +IMP (0.2 mM)): 125.7%; Thres +IMP (0.2 mM) (T1R1/T1R3 receptor [2]; +IMP (0.2 mM)): 0.525 mM; Activity (T1R1/T1R3 receptor [2]): active
